Measured values: patent US8673913B2, “SHP-2 phosphatase inhibitor” (Case Western Reserve University, priority 2009, dated 2014)

What was measured:
GST-SHP-1 = target: T1, GST-SHP-1 (Homo sapiens, UniProt P29350); assay: in vitro phosphatase assay, SHP-1; assay type: biochemical; settings: for functional specificity SHP-2 vs. SHP-1: phosphatase assays at the indicated concentrations
T1 construct: purchased Biomol International, L.P. (Plymouth Meeting, Pa.)
Text: (§1) Candidate compounds were screened using the in vitro protein tyrosine phosphatase (PTP) assay kit (Sigma, St. Lois, Mo.). SHP-2 PTP domain GST fusion protein purified in house was used as the enzyme and a phospho-peptide corresponding to the surrounding sequence of pTyr^1146 in the insulin receptor (Thr-Arg-Asp-Ile-Tyr[PO3H2]-Glu-Thr-Asp-Tyr-Tyr) were used as the substrate. The assay determines free phosphate generated by dephosphorylation of the PTP substrate using the Malachite Green reagent. Briefly, 0.5 μg of GST-SHP-2 PTP was incubated in 40 μL assay buffer (25 mM Tris-HCl, PH7.4, 50 mM NaCl, 5 mM DTT, and 2.5 mM EDTA) with test compounds at various concentrations or DMSO at room temperature for 30 min. The PTP substrate was then added to a final concentration of 0.2 mM. The system was incubated at 30° C. for 30 min. Finally, 50 μl of Malachite Green solution was added and OD620 was measured after 5 min. In the phosphatase assays for SHP-1, CD45, TC-PTP, PTP-MEG2 (PTPN9), and LAR (PTPRF), procedures were similar, with the exception that GST-SHP-1, GST-CD45 cytoplasmic domain, GST-TC-PTP, GST-PTP-MEG2 PTP domain, and GST-LAR PTP domain purchased from Biomol International, L.P. (Plymouth Meeting, Pa.) were used instead as the enzymes.

GST-TC-PTP = target: T2, GST-TC-PTP (Homo sapiens, UniProt P17706); assay: in vitro phosphatase assay, TC-PTP; assay type: biochemical; settings: for inhibition of TC-PTP: FIG. 4
T2 construct: purchased Biomol International, L.P. (Plymouth Meeting, Pa.)
T2 sequence (P17706 1-415): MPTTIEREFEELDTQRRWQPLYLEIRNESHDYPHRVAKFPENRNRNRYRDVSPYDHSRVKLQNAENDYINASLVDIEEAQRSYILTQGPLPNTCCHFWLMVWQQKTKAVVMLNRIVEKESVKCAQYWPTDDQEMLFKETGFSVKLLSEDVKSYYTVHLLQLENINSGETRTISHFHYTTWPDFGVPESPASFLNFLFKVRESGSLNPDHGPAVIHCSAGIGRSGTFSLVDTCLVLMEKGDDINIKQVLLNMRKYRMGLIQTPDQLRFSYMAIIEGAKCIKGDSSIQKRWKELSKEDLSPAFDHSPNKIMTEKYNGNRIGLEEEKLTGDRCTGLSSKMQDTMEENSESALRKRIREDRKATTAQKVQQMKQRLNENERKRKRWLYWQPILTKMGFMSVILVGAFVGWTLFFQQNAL
Experimental: as §1, with “SHP-2 PTP domain GST fusion protein purified in house was used as the enzyme and a phospho-peptide corresponding to the surrounding sequence of pTyr^1146 in the insulin receptor (Thr-Arg-Asp-Ile-Tyr[PO3H2]-Glu-Thr-Asp-Tyr-Tyr) were used as the substrate.” left out

Ba/F3 cells = assay: Ba/F3 cell proliferation assay (IL-3, MTS); assay type: cell-based, murine
Experimental: To test the effects of the active compounds on IL-3-induced cellular response, Ba/F3, an IL-3 dependent murine pro-B lymphoma cell line, was used for the assay. Ba/F3 cells were seeded into 96-well plates (2×10^4 cells/well) in the RPMI-1640 medium supplemented with 10% fetal bovine serum (FBS), recombinant mouse IL-3 (1 ng/mL), and test compounds ([…]). Three days later, cell number was determined using the MTS cell proliferation kit (Promega Life Science, Madison, Wis.).
To test the effects of the active compounds on SHP-2-mediated cellular proliferation, Ba/F3, an IL-3 dependent hematopoietic cell line, mouse embryonic fibroblasts (MEFs), and H661 lung cancer cell line with SHP-2 activating mutation N58S were used for the assays. Cells were seeded into 96-well plates (2×10^4 cells/well) in the RPMI-1640 (for Ba/F3 cells) or DMEM (for MEFs and H661 cells) medium supplemented with 10% fetal bovine serum (FBS) and test compounds at various concentrations. For the Ba/F3 cell assay, recombinant mouse IL-3 (1 ng/mL) was included in the culture medium. Two days later, cell number was determined using the MTS cell proliferation kit (Promega Life Science, Madison, Wis.).

[1] = target: T3, SHP-2 PTP domain GST fusion protein (Homo sapiens, UniProt Q06124); assay: in vitro protein tyrosine phosphatase assay, SHP-2 (Malachite Green); assay type: biochemical; set-up: SHP-2 PTP domain GST fusion protein purified in house was used as the enzyme; made in house; settings: for inhibition at 100 µM: compound at 100 μM, read-out: inhibition of SHP-2 enzymatic activity
T3 sequence (Q06124 247-517 limits assumed): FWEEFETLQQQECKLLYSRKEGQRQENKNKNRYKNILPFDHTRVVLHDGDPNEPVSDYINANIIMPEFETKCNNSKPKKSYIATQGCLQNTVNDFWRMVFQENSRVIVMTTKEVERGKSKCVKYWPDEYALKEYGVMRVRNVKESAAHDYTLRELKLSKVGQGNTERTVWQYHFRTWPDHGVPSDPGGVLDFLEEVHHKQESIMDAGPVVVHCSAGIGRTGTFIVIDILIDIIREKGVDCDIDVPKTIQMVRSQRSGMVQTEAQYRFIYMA
Text: as §1
Candidate compounds identified by CADD were screened by the in vitro tyrosine phosphatase assay as described in the Experimental Section. The GST-SHP-2 PTP domain fusion protein was incubated with the compounds at room temperature for 30 min before the phospho-peptide substrate was added to the assay systems, allowing compounds to bind to target sites in SHP-2. Each test compound was dissolved in DMSO. Initial concentration of the test compounds was 100 μM. In the experimental assay, DMSO was included as the negative control and sodium orthovanadate (100 μM), a general non-specific tyrosine phosphatase inhibitor, was used as the positive control. From the 165 commercially available compounds tested, we identified 9 compounds that inhibit SHP-2 catalytic activity with various efficiencies (FIG. 3A). […] The inhibitory effects of the compounds were dose-dependent.

T1 sequence (P29350 whole entry): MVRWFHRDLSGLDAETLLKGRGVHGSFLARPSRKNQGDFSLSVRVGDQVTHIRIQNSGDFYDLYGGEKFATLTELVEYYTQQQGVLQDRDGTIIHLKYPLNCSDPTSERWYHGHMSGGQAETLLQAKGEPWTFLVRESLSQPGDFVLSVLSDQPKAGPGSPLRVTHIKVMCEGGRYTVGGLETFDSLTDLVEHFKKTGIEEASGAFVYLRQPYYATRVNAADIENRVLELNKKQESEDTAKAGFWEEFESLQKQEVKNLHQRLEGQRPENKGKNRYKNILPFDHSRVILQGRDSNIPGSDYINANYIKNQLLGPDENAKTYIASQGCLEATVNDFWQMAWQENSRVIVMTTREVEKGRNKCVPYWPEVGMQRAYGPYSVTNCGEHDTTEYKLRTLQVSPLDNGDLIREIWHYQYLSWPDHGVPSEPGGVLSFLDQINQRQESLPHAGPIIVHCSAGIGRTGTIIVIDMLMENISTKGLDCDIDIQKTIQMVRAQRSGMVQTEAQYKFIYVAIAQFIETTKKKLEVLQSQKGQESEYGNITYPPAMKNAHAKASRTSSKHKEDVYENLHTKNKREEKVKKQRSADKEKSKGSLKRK

Row | SMILES | functional specificity SHP-2 vs. SHP-1 (GST-SHP-1) | inhibition of TC-PTP (GST-TC-PTP) | IL-3-stimulated cell growth (Ba/F3 cells; 100 or 200 μM, IL-3 1 ng/mL, 72 hours) | inhibition at 100 µM [1] | acute cytotoxicity (Ba/F3 cells) | IC50 (GST-SHP-1; read-out: IC50 SHP1) | IC50 (GST-TC-PTP) | SHP-2 mediated proliferative response to IL-3 (Ba/F3 cells; IL-3 1 ng/mL, 48 hours) | selectivity for SHP-2 compared to other PTPases ([1]; Table 1 and FIG. 10) | IC50 ([1]; read-out: IC50 SHP2)
1 | NS(=O)(=O)c1ccc(CCNC(=O)c2ccc(Cn3c(=S)[nH]c4ccc(Br)cc4c3=O)cc2)cc1 [#216] | selectively inhibited SHP-2 vs. SHP-1 | slight inhibition | greatly decreased | 55% |  |  |  |  |  | 
2 | Cc1cc(C)c2c(c1)[nH]c1nnc(SCC(=O)NCc3cccs3)nc12 [#220] | selectively inhibited SHP-2 vs. SHP-1 | slight inhibition |  | 50% | modest acute cytotoxicity |  |  |  |  | 
3 | Cc1cc(C)c2[nH]c3nc(SCC(=O)Nc4cccc5ccccc45)nnc3c2c1 [#324] | high functional specificity for SHP-2 over SHP-1 |  |  |  |  | 37.7 µM | 39.9 µM | inhibit | selectively inhibits SHP-2 compared to other PTPases | 13.9 µM
